Where a name gives a salt, the structure may show the parent alone.
target: T1, Mouse VCP (Mus musculus, UniProt Q01853); assay: ATPase activity of purified His-tagged VCP, [γ-32P]ATP, liberated phosphate by liquid scintillation; format: biochemical; details: compounds of Comparative Examples; determined in the same manner as the Examples
T1 construct: histidine tag (N); made in house; host or cells: Sf-9 insect cells (baculovirus vector pVL1392)
Description: In one aspect, the effect of VCP regulators for regulating ATPase activity is determined, for example by the following exemplary assay. Mouse VCP cDNA (the amino acid sequence is completely identical among mouse, rat and human) is added with a DNA sequence corresponding to a histidine tag at the amino-terminal, subcloned into a baculovirus vector pVL1392 (BD Bioscience), and expressed in Sf-9 insect cells. The protein is purified with a nickel column. After the purification the concentration of the protein is adjusted to 0.25-0.5 μg/ml and the protein is stored in a solution containing 50 mM TrisCl pH 8.0, 5 mM EDTA, 10% glycerol, and 15 mM DTT at 4° C. 500 ng of the purified VCP is mixed with 100 μM [γ-^32P]ATP (18.5 GBq/mmol) and the test substance in 20 μL of ATPase buffer (20 mM HEPES (pH7.4), 50 mM KCl, 5 mM MgCl2, 15 mM DTT), and incubated at 37° C. for 10 minutes. The enzyme reaction is stopped with addition of 200 μL of an ice-cold solution containing 7% TCA and 1 mM K2HPO4. 50μ of a solution containing 3.75% ammonium molybdate and 0.02M tungstate silicic/3 N H2SO4 is added, followed by 300 μL of n-butylacetic acid, and then the liberated phosphate is extracted into the organic layer. The reaction tube is centrifuged for 5 minutes at 20,000 g to separate the aqueous layer and the organic layer, 200 μL of the organic layer is taken, and the beta ray radiated from the liberated phosphate is quantified with liquid scintillation counter. By measuring the ATPase activity in the presence of the test substance at various concentrations, ATPase inhibitory activity of the test substance is measured.
Mouse VCP cDNA was added with a DNA sequence corresponding to histidine tag at the amino-terminal, subcloned into a baculovirus vector pVL1392 (BD Bioscience), and expressed in Sf-9 insect cells. The protein was purified with a nickel column (GE Healthcare). The concentration of the protein was adjusted to 0.25-0.5 μg/ml and the protein was stored in a solution containing 50 mM TrisCl pH 8.0, 5 mM EDTA, 10% glycerol, and 15 mM DTT.
The ATPase activity was determined as follows. 500 ng of the purified VCP was mixed with 100 μM [γ-32P]ATP (18.5 GBq/mmol) and the test substance in 20 μL of ATPase buffer (20 mM HEPES (pH7.4), 50 mM KCl, 5 mM MgCl2, 15 mM DTT), and incubated at 37° C. for 10 minutes.
The enzyme reaction was stopped with addition of 200 μL of an ice-cold solution containing 7% TCA and 1 mM K2HPO4. 50μ of a solution containing 3.75% ammonium molybdate and 0.02M tungstate silicic/3 NH2SO4 was added, followed by 300 μL of n-butylacetic acid, and then the liberated phosphate was extracted into the organic layer. The reaction tube was centrifuged for 5 minutes at 20,000 g to separate the aqueous layer and the organic layer, 200 μL of the organic layer was taken, and the beta ray radiated from the liberated phosphate was quantified with liquid scintillation counter.
By measuring the ATPase activity in the presence of the test substance at various concentrations, ATPase inhibitory activity of the test substance was measured. IC50 of the each test substance was calculated by applying the measured values to the equation below using GraphPad Prism (GraphPad Software).

T1 sequence (Q01853 whole entry): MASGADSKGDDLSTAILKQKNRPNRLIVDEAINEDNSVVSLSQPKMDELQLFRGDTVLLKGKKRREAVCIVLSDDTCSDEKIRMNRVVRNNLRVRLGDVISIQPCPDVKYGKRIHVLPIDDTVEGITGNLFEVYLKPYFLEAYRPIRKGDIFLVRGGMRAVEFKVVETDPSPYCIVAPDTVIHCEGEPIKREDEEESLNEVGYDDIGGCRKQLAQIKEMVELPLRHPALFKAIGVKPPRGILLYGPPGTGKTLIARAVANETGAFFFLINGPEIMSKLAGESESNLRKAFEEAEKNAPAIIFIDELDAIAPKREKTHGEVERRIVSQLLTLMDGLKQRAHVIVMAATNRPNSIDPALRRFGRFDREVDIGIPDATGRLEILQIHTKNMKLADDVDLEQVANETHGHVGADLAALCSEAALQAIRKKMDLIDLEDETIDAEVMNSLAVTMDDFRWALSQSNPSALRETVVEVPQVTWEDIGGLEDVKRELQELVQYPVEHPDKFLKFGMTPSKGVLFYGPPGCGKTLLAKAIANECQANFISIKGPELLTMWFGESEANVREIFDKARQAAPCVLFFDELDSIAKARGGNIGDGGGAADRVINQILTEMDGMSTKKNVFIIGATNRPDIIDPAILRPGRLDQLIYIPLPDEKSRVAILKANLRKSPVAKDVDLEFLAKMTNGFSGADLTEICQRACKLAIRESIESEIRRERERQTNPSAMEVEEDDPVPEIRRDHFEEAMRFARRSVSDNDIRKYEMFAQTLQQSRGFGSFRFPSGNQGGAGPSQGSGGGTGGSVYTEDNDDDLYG

IC50	SMILES
> 10000 nM	Nc1c(-c2ccccc2)cc(S(=O)(=O)O)c2ccccc12 [Example 26, sodium salt]
> 10000 nM	Nc1ccc(S(=O)(=O)O)c2ccccc12 [Example 20, sodium salt]
> 10000 nM	Nc1ccc(/N=N/c2ccccc2)c2ccc(S(=O)(=O)O)cc12 [Example 2, sodium salt]

same assay, conditions: compounds of Examples; ATPase inhibitory activity; 500 ng VCP, 100 μM ATP, 37° C., 10 minutes

IC50	SMILES
402 nM	Nc1c(/N=N/c2ccc(-c3ccccc3OCCCN3C(=O)c4ccccc4C3=O)nc2)cc(S(=O)(=O)O)c2ccccc12 [Example 78, 4-amino-3-(6-{2-[3-(1,3-dioxo-1,3-dihydroisoindole-2-yl)propoxy]phenyl}pyridine-3-ylazo)naphthalene-1-sulfonic acid sodium salt]
1390 nM	Nc1c(/N=N/c2cccc(Cl)c2)cc(S(=O)(=O)O)c2ccccc12 [Example 99, 4-amino-3-(3-chlorophenylazo)naphthalene-1-sulfonic acid sodium salt]
1900 nM	Nc1c(/N=N/c2ccc(C(=O)Nc3ccccc3)cc2)cc(S(=O)(=O)O)c2ccccc12 [Example 129, 4-amino-3-(4-phenylcarbamoylphenylazo)naphthalene-1-sulfonic acid sodium salt]
1050 nM	Cc1cc(/N=N/c2cc(S(=O)(=O)O)c3ccccc3c2N)cnc1-c1cccc2c1sc1ccccc12 [Example 85, 4-amino-3-(6-dibenzothiophene-4-yl-5-methylpyridine-3-ylazo)naphthalene-1-sulfonic acid sodium salt]
266 nM	Nc1c(/N=N/c2ccc(Br)cc2Br)cc(S(=O)(=O)O)c2ccccc12 [Example 113, 4-amino-3-(2,4-dibromophenylazo)naphthalene-1-sulfonic acid sodium salt]
162 nM	Cc1ccc(/N=N/c2cc(S(=O)(=O)O)c3ccccc3c2N)c([N+](=O)[O-])c1 [Example 120, 4-amino-3-(4-methyl-2-nitrophenylazo)naphthalene-1-sulfonic acid sodium salt]
260 nM	Nc1c(/N=N/c2cccc(C(=O)c3ccccc3)c2)cc(S(=O)(=O)O)c2ccccc12 [Example 130, 4-amino-3-(3-benzoylphenylazo)naphthalene-1-sulfonic acid sodium salt]
1060 nM	Nc1c(/N=N/c2ccc(-c3cccnc3)nc2-c2cccnc2)cc(S(=O)(=O)O)c2ccccc12 [Example 54, 4-amino-3-([3,2′;6′,3″]terpyridine-3′-ylazo)naphthalene-1-sulfonic acid sodium salt]
243 nM	Nc1c(/N=N/c2ccccc2OCc2cccnc2)cc(S(=O)(=O)O)c2ccccc12 [Example 142, 4-amino-3-[2-(pyridine-3-ylmethoxy)phenylazo]naphthalene-1-sulfonic acid sodium salt]
1040 nM	Nc1c(/N=N/c2ccc(-c3cccc4c3sc3ccccc34)nc2)cc(S(=O)(=O)O)c2ccccc12 [Example 43, 4-amino-3-(6-dibenzothiophene-4-ylpyridine-3-ylazo)naphthalene-1-sulfonic acid potassium salt]
798 nM	Cc1cc(F)ccc1-c1ncc(/N=N/c2cc(S(=O)(=O)O)c3ccccc3c2N)cc1C [Example 79, 4-amino-3-[6-(4-fluoro-2-methylphenyl)-5-methylpyridine-3-ylazo]naphthalene-1-sulfonic acid sodium salt]
128 nM	Nc1c(/N=N/c2c(Br)cc(-c3cccnc3)cc2Br)cc(S(=O)(=O)O)c2ccccc12 [Example 128, 4-amino-3-(2,6-dibromo-4-pyridine-3-ylphenylazo)naphthalene-1-sulfonic acid sodium salt]
281 nM	Nc1c(/N=N/c2ccc(OCc3cccnc3)nc2)cc(S(=O)(=O)O)c2ccccc12 [Example 3, 3-(2-pyridinomethoxy-5-pyridinoazo)-4-amino-1-naphthalenesulfonic acid sodium salt]
856 nM	Nc1c(/N=N/c2cccc(Br)c2)cc(S(=O)(=O)O)c2ccccc12 [Example 109, 4-amino-3-(3-bromophenylazo)naphthalene-1-sulfonic acid sodium salt]
1390 nM	Nc1c(/N=N/c2ccc(-c3cccnc3)nc2)cc(S(=O)(=O)O)c2ccccc12 [Example 52, 4-amino-3-([2,3′]bipyridinyl-5-ylazo)naphthalene-1-sulfonic acid sodium salt]
518 nM	COCCOc1ccc(/N=N/c2cc(S(=O)(=O)O)c3ccccc3c2N)cn1 [Example 6, 4-amino-3-[6-(2-methoxyethoxy)pyridine-3-ylazo]naphthalene-1-sulfonic acid sodium salt]
1290 nM	COC(=O)c1sccc1/N=N/c1cc(S(=O)(=O)O)c2ccccc2c1N [Example 146, methyl 3-(1-amino-4-sulfonaphthalene-2-ylazo)thiophene-2-carboxylate sodium salt]

SMILES	IC50
Nc1c(/N=N/c2ccc(-c3ccccc3Oc3ccccc3)nc2)cc(S(=O)(=O)O)c2ccccc12 [Example 29, 4-amino-3-[6-(2-phenoxyphenyl)pyridine-3-ylazo]naphthalene-1-sulfonic acid sodium salt]	287 nM
Cc1ccc(F)cc1-c1ccc(/N=N/c2cc(S(=O)(=O)O)c3ccccc3c2N)cn1 [Example 58, 4-amino-3-[6-(5-fluoro-2-methylphenyl)pyridine-3-ylazo]naphthalene-1-sulfonic acid sodium salt]	320 nM
Nc1c(/N=N/c2ccc(-c3ccccc3-c3ccccc3)nc2)cc(S(=O)(=O)O)c2ccccc12 [Example 12, 4-amino-3-(6-biphenyl-2-ylpyridine-3-ylazo)naphthalene-1-sulfonic acid sodium salt]	116 nM
CC(C)COc1ccccc1-c1ccc(/N=N/c2cc(S(=O)(=O)O)c3ccccc3c2N)cn1 [Example 67, 4-amino-3-[6-(2-isobutoxyphenyl)pyridine-3-ylazo]naphthalene-1-sulfonic acid sodium salt]	130 nM
N#Cc1cccc(-c2ccc(/N=N/c3cc(S(=O)(=O)O)c4ccccc4c3N)cn2)c1 [Example 44, 4-amino-3-[6-(3-cyanophenyl)pyridine-3-ylazo]naphthalene-1-sulfonic acid sodium salt]	584 nM
COc1cccc(-c2ccc(/N=N/c3cc(S(=O)(=O)O)c4ccccc4c3N)cn2)c1 [Example 32, 4-amino-3-[6-(3-methoxyphenyl)pyridine-3-ylazo]naphthalene-1-sulfonic acid sodium salt]	428 nM
CC(=O)c1ccccc1-c1ccc(/N=N/c2cc(S(=O)(=O)O)c3ccccc3c2N)cn1 [Example 14, 3-[6-(2-acetylphenyl)pyridine-3-ylazo]-4-aminonaphthalene-1-sulfonic acid sodium salt]	178 nM
CC(C)Oc1ccccc1-c1ccc(/N=N/c2cc(S(=O)(=O)O)c3ccccc3c2N)cn1 [Example 27, 4-amino-3-[6-(2-isopropoxyphenyl)pyridine-3-ylazo]naphthalene-1-sulfonic acid sodium salt]	145 nM
CCCCc1ccc(-c2ccc(/N=N/c3cc(S(=O)(=O)O)c4ccccc4c3N)cn2)cc1 [Example 62, 4-amino-3-[6-(4-butylphenyl)pyridine-3-ylazo]naphthalene-1-sulfonic acid sodium salt]	856 nM
Cc1cc(C)cc(-c2ccc(C)cc2-c2ccc(/N=N/c3cc(S(=O)(=O)O)c4ccccc4c3N)cn2)c1 [Example 74, 4-amino-3-[6-(4,3′,5′-trimethylbiphenyl-2-yl)pyridine-3-ylazo]naphthalene-1-sulfonic acid sodium salt]	4000 nM
Cc1ccccc1-c1ccc(/N=N/c2cc(S(=O)(=O)O)c3ccccc3c2N)cn1 [Example 10, 4-amino-3-(6-o-tolylpyridine-3-ylazo)naphthalene-1-sulfonic acid sodium salt]	149 nM
